# In patent US20110070232A1, “Combination Therapy with an Antitumor Alkaloid” (Pharma Mar, S.A., priority 2008, published 2011):
# Like-named read-outs stand apart in the source and are kept apart here.
# Legend:
# Type in all cases: in vivo, mice
# [1] = system: BxPC-3 tumors; conditions: mg/kg/day: PM00104 0.90 IV
# Experimental: (§1) Female CB17.SCID mice (Charles River Lab.) were utilized for all experiments. Animals were housed in ventilated rack caging with food and water ad libitum. The mice were acclimated for at least 5 days prior to tumor implantation with a tumor cell suspension.
# (§2) The tumor model used in these studies was BxPC-3 cell line, which was obtained from the ATCC (Manassas, Va.).
# Treatments were initiated on DPI 9.
# (§3) Tumor size measurements were recorded twice weekly from the treatment initiation until the termination of the study.
# (§4) Mean, standard deviation and standard error of the mean were determined for tumor volume for all animal groups at all assessments. Student's t test was performed on tumor volumes at each measurement day, including at the end of the study, to determine whether there were any statistically significant differences between combination treatment groups and single monotherapy treatment groups.
# [2] = system: BxPC-3 tumors; conditions: mg/kg/day: PM00104 0.90 IV, gemcitabine 180 IP
# Experimental: as §1, §2
# Bacterial cultures were performed on aliquots of the cells prepared for implantation.
# Treatments were initiated on DPI 14.
# as §3, §4
# [3] = system: CaLu-6 tumors
# Experimental: Female athymic nude mice (Harlan Sprague Dawley, Madison, Wis.) were utilized for all experiments. Animals were housed in ventilated rack caging with food and water ad libitum. The mice were acclimated for at least 5 days prior to tumor implantation.
# The tumor model used in this study was CaLu-6 cell line which is a human lung cancer cell line obtained from the ATCC (Manassas, Va.). CaLu-6 cells were grown in Eagle's Minimum Essential Medium (MEM), 10% FBS and 2 mM L-glutamine. Cells from in vitro passage 12 were implanted SC into study mice using a 1 ml syringe with a 13G trocar: 5×10^6 cells/mouse in 0.2 ml 50% Matrigel/50% MEM medium of CaLu-6 without serum or antibiotics. Bacterial culture was taken on cells used to implant the study.
# When tumors reached an appropriated volume, within the size range of 99±17 mm^3 (mean±SD), mice were randomized into the treatment and control groups based on tumor weight by using LabCat® In Life module V 8.0 SP1 tumor tracking and measurement software. Treatments were initiated on DPI 9.
# Tumor size measurements were recorded 2-3 times/week from the treatment initiation until the termination of the study.
# as §4
# [4] = Gemcitabine 90 mg/kg/day IP, alone or with PM00104 0.9 mg/kg/day IV
# [5] = PM00104 0.9 mg/kg/day IV and/or Gemcitabine 180 mg/kg/day IP
smiles,measurement,setting,value
C#Cc1cccc(Nc2ncnc3cc(OCCOC)c(OCCOC)cc23)c1 [erlotinib],% Inhibition,"[1]; day 9, erlotinib 15 PO",0.5%
same,% T/C on day,"[1]; day 9, erlotinib 15 PO",99.5%
same,% Inhibition,"[1]; day 9, erlotinib 30 PO",−4.2%
same,% T/C on day,"[1]; day 9, erlotinib 30 PO",104.2%
same,% Inhibition,"[1]; day 9, erlotinib 50 PO",−2.5%
same,% T/C on day,"[1]; day 9, erlotinib 50 PO",102.5%
same,% Inhibition,"[1]; day 12, erlotinib 15 PO",24.1%
same,% T/C on day,"[1]; day 12, erlotinib 15 PO",75.9%
same,% Inhibition,"[1]; day 12, erlotinib 30 PO",15.1%
same,% T/C on day,"[1]; day 12, erlotinib 30 PO",84.9%
same,% Inhibition,"[1]; day 12, erlotinib 50 PO",15.1%
same,% T/C on day,"[1]; day 12, erlotinib 50 PO",84.9%
same,% Inhibition,"[1]; day 15, erlotinib 15 PO",7.8%
same,% T/C on day,"[1]; day 15, erlotinib 15 PO",92.2%
same,% Inhibition,"[1]; day 15, erlotinib 30 PO",−5.8%
same,% T/C on day,"[1]; day 15, erlotinib 30 PO",105.8%
same,% Inhibition,"[1]; day 15, erlotinib 50 PO",−14.2%
same,% T/C on day,"[1]; day 15, erlotinib 50 PO",114.2%
same,% Inhibition,"[1]; day 19, erlotinib 15 PO",21.0%
same,% T/C on day,"[1]; day 19, erlotinib 15 PO",79.0%
same,% Inhibition,"[1]; day 19, erlotinib 30 PO",6.5%
same,% T/C on day,"[1]; day 19, erlotinib 30 PO",93.5%
same,% Inhibition,"[1]; day 19, erlotinib 50 PO",−2.6%
same,% T/C on day,"[1]; day 19, erlotinib 50 PO",102.6%
same,% Inhibition,"[1]; day 21, erlotinib 15 PO",33.8%
same,% T/C on day,"[1]; day 21, erlotinib 15 PO",66.2%
same,% Inhibition,"[1]; day 21, erlotinib 30 PO",16.3%
same,% T/C on day,"[1]; day 21, erlotinib 30 PO",83.7%
same,% Inhibition,"[1]; day 21, erlotinib 50 PO",15.5%
same,% T/C on day,"[1]; day 21, erlotinib 50 PO",84.5%
same,% Inhibition,"[1]; day 26, erlotinib 15 PO",7.5%
same,% T/C on day,"[1]; day 26, erlotinib 15 PO",92.5%
same,% Inhibition,"[1]; day 26, erlotinib 30 PO",−14.2%
same,% T/C on day,"[1]; day 26, erlotinib 30 PO",114.2%
same,% Inhibition,"[1]; day 26, erlotinib 50 PO",9.0%
same,% T/C on day,"[1]; day 26, erlotinib 50 PO",91.0%
same,% Inhibition,"[1]; day 29, erlotinib 15 PO",16.2%
same,% T/C on day,"[1]; day 29, erlotinib 15 PO",83.8%
same,% Inhibition,"[1]; day 29, erlotinib 30 PO",15.2%
same,% T/C on day,"[1]; day 29, erlotinib 30 PO",84.8%
same,% Inhibition,"[1]; day 29, erlotinib 50 PO",40.7%
same,% T/C on day,"[1]; day 29, erlotinib 50 PO",59.3%
same,% Inhibition,"[1]; day 33, erlotinib 15 PO",7.9%
same,% T/C on day,"[1]; day 33, erlotinib 15 PO",92.1%
same,% Inhibition,"[1]; day 33, erlotinib 30 PO",13.0%
same,% T/C on day,"[1]; day 33, erlotinib 30 PO",87.0%
same,% Inhibition,"[1]; day 33, erlotinib 50 PO",12.1%
same,% T/C on day,"[1]; day 33, erlotinib 50 PO",87.9%
same,% Inhibition,"[1]; day 40, erlotinib 15 PO",18.8%
same,% T/C on day,"[1]; day 40, erlotinib 15 PO",81.2%
same,% Inhibition,"[1]; day 40, erlotinib 30 PO",14.5%
same,% T/C on day,"[1]; day 40, erlotinib 30 PO",85.5%
same,% Inhibition,"[1]; day 40, erlotinib 50 PO",15.4%
same,% T/C on day,"[1]; day 40, erlotinib 50 PO",84.6%
"Nc1ccn([C@@H]2O[C@H](CO)[C@@H](O)C2(F)F)c(=O)n1 [Gemcitabine, gemcitabine]",% Inhibition,[2]; day 14,3.1%
same,% T/C on day,[2]; day 14,96.9%
same,% Inhibition,[2]; day 16,−44.6%
same,% T/C on day,[2]; day 16,144.6%
same,% Inhibition,[2]; day 19,−15.6%
same,% T/C on day,[2]; day 19,115.6%
same,% Inhibition,[2]; day 22,25.5%
same,% T/C on day,[2]; day 22,74.5%
same,% Inhibition,[2]; day 26,−6.1%
same,% T/C on day,[2]; day 26,106.1%
same,% Inhibition,[2]; day 29,20.7%
same,% T/C on day,[2]; day 29,79.3%
same,% Inhibition,[2]; day 34,31.3%
same,% T/C on day,[2]; day 34,68.7%
same,% Inhibition,[2]; day 40,−33.9%
same,% T/C on day,[2]; day 40,133.9%
same,% T/C on day 9,[3]; [4],100.6%
same,% T/C on day 12,[3]; [4],37.8%
same,% T/C on day 15,[3]; [4],78.8%
same,% T/C on day 19,[3]; [4],64.8%
same,% T/C on day 22,[3]; [4],72.0%
same,% T/C on day 26,[3]; [4],67.1%
same,% T/C on day 29,[3]; [4],61.3%
same,% T/C on day 34,[3]; [4],72.8%
same,% T/C on day 40,[3]; [4],76.1%
same,% T/C on day 9,[3]; [5],99.6%
same,% T/C on day 12,[3]; [5],39.0%
same,% T/C on day 15,[3]; [5],61.0%
same,% T/C on day 19,[3]; [5],62.5%
same,% T/C on day 22,[3]; [5],48.7%
same,% T/C on day 26,[3]; [5],53.0%
same,% T/C on day 29,[3]; [5],46.8%
same,% T/C on day 34,[3]; [5],52.8%
same,% T/C on day 40,[3]; [5],60.4%
